Assay results published in ChEMBL document CHEMBL1201862, “PubChem BioAssay data set” (2004).
Activity calls are given as the source filed them.

Tests used:
Cytochrome P450 3A4 = Cytochrome P450 3A4 (Homo sapiens, UniProt P08684); details: Potency;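 note: confirmatory qHTS run detecting inhibitors and substrates of CYP3A4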
Cytochrome P450 2D6 = Cytochrome P450 2D6 (Homo sapiens, UniProt P10635); assay: qHTS Assay for Inhibitors and Substrates of Cytochrome P450 2D6. [Related pubchem assays: 410 ]; format: ADME; details: read-out: Potency
Estrogen receptor = target: T1, Estrogen receptor (Homo sapiens, UniProt P03372); assay: blockers of SRC-3 recruitment to ERα – biochemical, ELISA, streptavidin-HRP readout, orthogonal assay, confirmation (AID 1079)
T1 sequence (P03372 whole entry): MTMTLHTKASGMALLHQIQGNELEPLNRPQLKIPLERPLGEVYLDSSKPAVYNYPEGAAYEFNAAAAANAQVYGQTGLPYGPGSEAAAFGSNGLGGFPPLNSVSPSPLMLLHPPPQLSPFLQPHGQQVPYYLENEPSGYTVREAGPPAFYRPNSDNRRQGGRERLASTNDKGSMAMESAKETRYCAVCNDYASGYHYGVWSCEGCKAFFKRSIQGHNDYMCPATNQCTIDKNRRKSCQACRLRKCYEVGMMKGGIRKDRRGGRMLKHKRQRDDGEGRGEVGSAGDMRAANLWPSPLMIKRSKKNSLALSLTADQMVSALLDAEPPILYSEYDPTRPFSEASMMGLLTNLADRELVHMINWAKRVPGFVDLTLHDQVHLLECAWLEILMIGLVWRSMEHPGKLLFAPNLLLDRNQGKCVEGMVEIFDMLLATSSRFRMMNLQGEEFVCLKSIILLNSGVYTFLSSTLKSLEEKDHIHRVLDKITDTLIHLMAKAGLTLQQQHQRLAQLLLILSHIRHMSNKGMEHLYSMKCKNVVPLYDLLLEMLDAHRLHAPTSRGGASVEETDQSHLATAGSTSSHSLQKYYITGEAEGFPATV

[1] = antiviral protection against BTV-induced cell death – arbovirus, BSR cells, confirmation (AID 1250); format: functional;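 note: protection from viral cytopathic effect measured as cell viability by ATP luminescence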
[2] = target: Peroxisome proliferator-activated receptor gamma/Nuclear receptor coactivator 2 (Homo sapiens, UniProt P37231); format: functional;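 note: agonist potency for raising coactivator recruitment to the receptor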
Cytochrome P450 1A2 = target: T2, Cytochrome P450 1A2 (Homo sapiens, UniProt P05177);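 note: PubChem cytochrome P450 panel assay, CYP1A2 panel member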
T2 sequence (P05177 whole entry): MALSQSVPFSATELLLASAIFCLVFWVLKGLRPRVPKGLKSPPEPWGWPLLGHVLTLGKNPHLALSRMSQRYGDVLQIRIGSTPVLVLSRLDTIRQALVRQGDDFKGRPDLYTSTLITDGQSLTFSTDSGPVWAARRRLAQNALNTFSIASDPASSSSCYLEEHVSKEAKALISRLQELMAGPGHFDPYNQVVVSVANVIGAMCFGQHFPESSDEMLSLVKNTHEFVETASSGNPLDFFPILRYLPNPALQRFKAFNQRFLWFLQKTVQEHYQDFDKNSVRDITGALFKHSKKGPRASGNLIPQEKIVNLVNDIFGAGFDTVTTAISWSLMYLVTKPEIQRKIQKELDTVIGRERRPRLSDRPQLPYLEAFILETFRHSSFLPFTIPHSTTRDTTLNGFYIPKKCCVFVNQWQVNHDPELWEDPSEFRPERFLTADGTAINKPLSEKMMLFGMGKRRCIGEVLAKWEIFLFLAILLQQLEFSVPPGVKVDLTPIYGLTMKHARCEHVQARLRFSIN

[3] = target: Peroxisome proliferator-activated receptor gamma/Nuclear receptor coactivator 3 (Homo sapiens, UniProt P37231); format: functional;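 note: agonist potency for raising coactivator recruitment to the receptor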
[4] = target: Peroxisome proliferator-activated receptor gamma/Nuclear receptor coactivator 1 (Homo sapiens, UniProt P37231); format: functional;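 note: agonist potency as compounds enhance coactivator SRC-1 recruitment to PPARgamma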
Cytochrome P450 2C19 = Cytochrome P450 2C19 (Homo sapiens, UniProt P33261); assay: Cytochrome panel assay with activity outcomes. Panel member name: p450-cyp2c19 Compounds with AC50 equal or less than 10 uM are considered active; format: functional; details: read-out: AC50
Nonstructural protein 1 = Nonstructural protein 1 (Influenza A virus, UniProt Q194T2); format: functional, Influenza A virus (A/California/07/2009(H1N1))
[5] = target: T3, Histone-lysine N-methyltransferase NSD2 (Homo sapiens, UniProt O96028); format: biochemical
T3 sequence (O96028 whole entry): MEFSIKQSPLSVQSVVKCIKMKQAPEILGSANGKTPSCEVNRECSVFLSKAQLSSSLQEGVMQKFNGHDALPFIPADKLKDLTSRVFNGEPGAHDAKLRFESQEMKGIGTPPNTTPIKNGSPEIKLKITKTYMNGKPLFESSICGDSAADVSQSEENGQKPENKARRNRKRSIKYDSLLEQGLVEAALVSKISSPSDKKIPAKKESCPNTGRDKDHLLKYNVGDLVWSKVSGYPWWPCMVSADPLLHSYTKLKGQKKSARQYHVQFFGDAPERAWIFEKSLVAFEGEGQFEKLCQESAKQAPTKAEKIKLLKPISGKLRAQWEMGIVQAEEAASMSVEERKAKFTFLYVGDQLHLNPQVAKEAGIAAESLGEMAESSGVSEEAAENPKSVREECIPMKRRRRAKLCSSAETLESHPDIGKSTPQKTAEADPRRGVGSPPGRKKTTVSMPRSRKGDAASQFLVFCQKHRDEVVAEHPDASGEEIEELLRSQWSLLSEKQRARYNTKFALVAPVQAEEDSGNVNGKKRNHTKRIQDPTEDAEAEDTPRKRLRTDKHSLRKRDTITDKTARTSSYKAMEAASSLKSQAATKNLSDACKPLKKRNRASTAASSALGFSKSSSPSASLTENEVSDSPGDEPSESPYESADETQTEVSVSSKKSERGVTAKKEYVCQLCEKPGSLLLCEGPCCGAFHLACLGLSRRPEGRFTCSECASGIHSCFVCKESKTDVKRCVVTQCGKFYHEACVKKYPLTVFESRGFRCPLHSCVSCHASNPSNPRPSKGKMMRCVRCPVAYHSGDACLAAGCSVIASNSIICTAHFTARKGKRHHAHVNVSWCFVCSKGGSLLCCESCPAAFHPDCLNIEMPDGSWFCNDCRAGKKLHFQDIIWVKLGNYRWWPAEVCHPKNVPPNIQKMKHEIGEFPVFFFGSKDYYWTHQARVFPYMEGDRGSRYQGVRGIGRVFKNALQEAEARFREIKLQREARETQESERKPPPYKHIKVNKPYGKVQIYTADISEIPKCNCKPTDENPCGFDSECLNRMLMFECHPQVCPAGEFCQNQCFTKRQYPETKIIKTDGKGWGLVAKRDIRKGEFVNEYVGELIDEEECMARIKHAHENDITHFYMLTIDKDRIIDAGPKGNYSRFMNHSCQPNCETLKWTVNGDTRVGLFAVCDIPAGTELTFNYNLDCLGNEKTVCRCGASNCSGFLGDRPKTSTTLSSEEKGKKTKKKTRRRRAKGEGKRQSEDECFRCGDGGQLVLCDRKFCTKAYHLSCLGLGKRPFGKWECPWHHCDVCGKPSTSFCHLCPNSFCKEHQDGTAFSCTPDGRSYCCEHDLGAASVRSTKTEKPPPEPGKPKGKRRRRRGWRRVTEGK

cells [6] = format: functional, cell-based
[7] = target: T4, Mannose-6-phosphate isomerase (Homo sapiens, UniProt P34949); assay: MPI inhibition at elevated mannose 6-phosphate – biochemical, fluorescence intensity, high mannose 6-phosphate, primary screen (AID 1220)
T4 sequence (P34949 whole entry): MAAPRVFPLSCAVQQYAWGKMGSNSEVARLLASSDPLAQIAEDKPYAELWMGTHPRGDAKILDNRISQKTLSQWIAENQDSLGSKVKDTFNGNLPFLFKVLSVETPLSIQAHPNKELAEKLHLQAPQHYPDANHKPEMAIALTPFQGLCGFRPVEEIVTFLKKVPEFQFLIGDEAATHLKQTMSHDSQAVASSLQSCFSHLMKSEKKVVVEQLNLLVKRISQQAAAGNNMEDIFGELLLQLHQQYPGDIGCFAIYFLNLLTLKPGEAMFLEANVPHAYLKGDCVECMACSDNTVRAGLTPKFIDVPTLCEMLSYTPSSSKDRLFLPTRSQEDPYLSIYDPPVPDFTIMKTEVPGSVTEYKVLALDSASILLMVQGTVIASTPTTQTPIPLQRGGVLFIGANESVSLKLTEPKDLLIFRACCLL

Large T antigen = Large T antigen (Simian virus 40, UniProt P03070); format: functional, Betapolyomavirus macacae;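 note: Confirmatory-stage PubChem screen for compounds that inhibit SV40 T antigen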
[8] = mitochondrial function rescue without frataxin homolog – Friedreich's ataxia, plus single-dose screen, dose response (AID 1465); format: functional;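 note: yeast depleted of Yfh1p frataxin homolog grown on glycerol needing respiration; WST-1 tetrazolium dye reduction as measure of cellular dehydrogenase metabolic activity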
cells [9] = format: functional, cell-based; remark: listed apart in the source
INS1 = assay: INS-1E survival protection against cytokine death – cell-based, luminescence, retest, dose response (AID 449756); format: functional; details: Rattus norvegicus;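 note: cell death triggered by IL-1 beta plus TNF-alpha plus IFN-gamma mixture; protective hits raise ATP signal compared with cytokine alone wells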
[10] = reduced cellular PGC1a acetyl-lysine signal – cell-based, cherry-picked samples, dose response (AID 720514); format: functional;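 note: potency may reflect raised or lowered acetylation signal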
[11] = target: T5, Microphthalmia-associated transcription factor (Homo sapiens, UniProt O75030); assay: reducers of TRPM1 reporter luminescence, concentration series – cell-based, SK-MEL-5, cherry-picked, set 3, MITF inhibitor project, dose response (AID 493073); format: functional;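 note: SK-MEL-5 melanoma cells with luciferase driven by the MITF target TRPM1 promoter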
T5 sequence (O75030 whole entry): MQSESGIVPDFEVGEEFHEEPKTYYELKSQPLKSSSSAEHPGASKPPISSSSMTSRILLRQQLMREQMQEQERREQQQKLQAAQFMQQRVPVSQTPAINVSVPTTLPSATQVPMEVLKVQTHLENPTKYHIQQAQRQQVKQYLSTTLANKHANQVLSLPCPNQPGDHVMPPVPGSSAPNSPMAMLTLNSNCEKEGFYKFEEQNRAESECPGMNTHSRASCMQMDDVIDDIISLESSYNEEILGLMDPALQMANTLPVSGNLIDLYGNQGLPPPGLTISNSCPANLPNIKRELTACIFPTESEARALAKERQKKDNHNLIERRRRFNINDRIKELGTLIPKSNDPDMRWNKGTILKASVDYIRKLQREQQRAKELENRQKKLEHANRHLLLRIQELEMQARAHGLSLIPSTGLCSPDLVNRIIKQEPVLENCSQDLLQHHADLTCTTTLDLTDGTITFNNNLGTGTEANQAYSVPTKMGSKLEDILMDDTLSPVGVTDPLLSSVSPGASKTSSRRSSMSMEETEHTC

[12] = target: T6, Sphingosine 1-phosphate receptor 4 (Homo sapiens, UniProt O95977); assay: Fluorescence dose response cell-based high throughput screening assay for antagonists of the Sphingosine 1-Phosphate Receptor 4 (S1P4). [Related pubchem assays: 1524 (Confirmation in triplicates.), 1510 (Primary screen.)]; format: functional
T6 sequence (O95977 whole entry): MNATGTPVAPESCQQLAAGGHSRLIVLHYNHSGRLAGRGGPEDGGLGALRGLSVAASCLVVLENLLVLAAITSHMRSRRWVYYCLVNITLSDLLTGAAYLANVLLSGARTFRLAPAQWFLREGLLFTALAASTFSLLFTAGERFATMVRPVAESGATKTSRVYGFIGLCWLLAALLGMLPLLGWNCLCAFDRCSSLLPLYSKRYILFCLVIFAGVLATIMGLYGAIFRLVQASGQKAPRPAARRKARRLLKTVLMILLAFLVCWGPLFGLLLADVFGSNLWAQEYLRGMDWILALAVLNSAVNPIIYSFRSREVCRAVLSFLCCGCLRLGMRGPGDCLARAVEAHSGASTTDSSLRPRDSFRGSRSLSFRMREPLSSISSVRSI

[13] = Trypanosoma cruzi growth suppression in host cells – NIH3T3 host cells, beta-gal luminescence, confirmation (AID 2044); format: functional, cell-based;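 note: intracellular parasites grown in NIH/3T3 mouse fibroblasts as host cells; luminescent beta-galactosidase reporter signal from transgenic T. cruzi replicating inside host cells; inhibitors lower the luminescence signal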
[14] = Fluorescence-based cell-based high throughput dose response assay for inhibitors of the interaction of nucleotide-binding oligomerization domain containing 2 (NOD2) and the receptor-interacting serine-threonine kinase 2 (RIPK2).; format: functional; details: Homo sapiens
[15] = NIH3T3 cell viability loss – ATP luminescence, mouse fibroblasts, counter-screen, dose response (AID 2010); format: functional, cell-based;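 note: cells exposed to compound for about 90 hours before reading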
[16] = target: Sphingosine 1-phosphate receptor 1 (Homo sapiens, UniProt P21453); format: functional;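 note: Tango beta-arrestin reporter U2OS cells stimulated with S1P near its EC80; inhibitor potency meaning antagonism of receptor activation by the natural agonist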

Chain of Cytochrome P450 2D6 (P10635 whole entry): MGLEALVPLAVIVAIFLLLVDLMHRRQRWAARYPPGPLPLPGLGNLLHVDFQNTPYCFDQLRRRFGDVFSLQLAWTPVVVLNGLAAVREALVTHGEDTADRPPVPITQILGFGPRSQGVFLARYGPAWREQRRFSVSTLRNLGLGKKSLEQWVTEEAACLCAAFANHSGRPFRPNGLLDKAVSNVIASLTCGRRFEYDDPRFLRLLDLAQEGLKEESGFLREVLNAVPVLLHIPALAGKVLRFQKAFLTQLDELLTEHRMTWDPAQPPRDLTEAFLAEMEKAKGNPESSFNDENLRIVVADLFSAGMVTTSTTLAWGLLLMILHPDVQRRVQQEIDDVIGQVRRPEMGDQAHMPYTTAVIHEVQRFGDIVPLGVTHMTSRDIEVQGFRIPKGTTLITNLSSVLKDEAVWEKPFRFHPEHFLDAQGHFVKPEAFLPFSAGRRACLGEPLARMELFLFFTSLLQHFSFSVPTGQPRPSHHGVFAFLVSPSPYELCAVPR
Chain of Cytochrome P450 3A4 (P08684 whole entry): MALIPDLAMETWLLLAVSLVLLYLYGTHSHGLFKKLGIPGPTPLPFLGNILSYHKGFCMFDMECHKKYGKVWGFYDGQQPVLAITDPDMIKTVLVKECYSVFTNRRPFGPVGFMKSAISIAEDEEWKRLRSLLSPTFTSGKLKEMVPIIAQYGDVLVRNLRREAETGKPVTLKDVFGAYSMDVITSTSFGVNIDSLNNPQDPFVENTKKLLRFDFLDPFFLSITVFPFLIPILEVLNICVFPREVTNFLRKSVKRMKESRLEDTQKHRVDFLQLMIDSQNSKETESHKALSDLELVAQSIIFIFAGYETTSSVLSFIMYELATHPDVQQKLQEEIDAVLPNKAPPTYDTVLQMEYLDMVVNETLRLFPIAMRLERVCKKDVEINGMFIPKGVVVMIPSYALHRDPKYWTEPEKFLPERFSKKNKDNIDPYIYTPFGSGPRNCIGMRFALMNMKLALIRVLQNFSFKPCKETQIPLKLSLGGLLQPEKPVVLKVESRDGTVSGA
Chain of Peroxisome proliferator-activated receptor gamma/Nuclear receptor coactivator 3 (P37231 whole entry): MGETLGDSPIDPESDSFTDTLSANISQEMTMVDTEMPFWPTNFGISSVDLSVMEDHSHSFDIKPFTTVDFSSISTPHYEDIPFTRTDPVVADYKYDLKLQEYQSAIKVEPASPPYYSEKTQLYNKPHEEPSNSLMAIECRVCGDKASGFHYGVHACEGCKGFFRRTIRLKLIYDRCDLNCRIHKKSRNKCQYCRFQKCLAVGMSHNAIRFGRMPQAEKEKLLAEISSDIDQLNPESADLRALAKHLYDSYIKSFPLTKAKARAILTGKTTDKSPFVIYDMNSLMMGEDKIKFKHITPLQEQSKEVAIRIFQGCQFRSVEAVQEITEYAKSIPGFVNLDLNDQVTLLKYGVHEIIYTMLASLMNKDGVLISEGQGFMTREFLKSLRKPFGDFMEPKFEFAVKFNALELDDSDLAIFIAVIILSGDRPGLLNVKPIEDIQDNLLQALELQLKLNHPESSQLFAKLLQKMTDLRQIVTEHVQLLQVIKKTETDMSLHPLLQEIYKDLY
Chain of Peroxisome proliferator-activated receptor gamma/Nuclear receptor coactivator 3 (Q9Y6Q9 whole entry, further chain): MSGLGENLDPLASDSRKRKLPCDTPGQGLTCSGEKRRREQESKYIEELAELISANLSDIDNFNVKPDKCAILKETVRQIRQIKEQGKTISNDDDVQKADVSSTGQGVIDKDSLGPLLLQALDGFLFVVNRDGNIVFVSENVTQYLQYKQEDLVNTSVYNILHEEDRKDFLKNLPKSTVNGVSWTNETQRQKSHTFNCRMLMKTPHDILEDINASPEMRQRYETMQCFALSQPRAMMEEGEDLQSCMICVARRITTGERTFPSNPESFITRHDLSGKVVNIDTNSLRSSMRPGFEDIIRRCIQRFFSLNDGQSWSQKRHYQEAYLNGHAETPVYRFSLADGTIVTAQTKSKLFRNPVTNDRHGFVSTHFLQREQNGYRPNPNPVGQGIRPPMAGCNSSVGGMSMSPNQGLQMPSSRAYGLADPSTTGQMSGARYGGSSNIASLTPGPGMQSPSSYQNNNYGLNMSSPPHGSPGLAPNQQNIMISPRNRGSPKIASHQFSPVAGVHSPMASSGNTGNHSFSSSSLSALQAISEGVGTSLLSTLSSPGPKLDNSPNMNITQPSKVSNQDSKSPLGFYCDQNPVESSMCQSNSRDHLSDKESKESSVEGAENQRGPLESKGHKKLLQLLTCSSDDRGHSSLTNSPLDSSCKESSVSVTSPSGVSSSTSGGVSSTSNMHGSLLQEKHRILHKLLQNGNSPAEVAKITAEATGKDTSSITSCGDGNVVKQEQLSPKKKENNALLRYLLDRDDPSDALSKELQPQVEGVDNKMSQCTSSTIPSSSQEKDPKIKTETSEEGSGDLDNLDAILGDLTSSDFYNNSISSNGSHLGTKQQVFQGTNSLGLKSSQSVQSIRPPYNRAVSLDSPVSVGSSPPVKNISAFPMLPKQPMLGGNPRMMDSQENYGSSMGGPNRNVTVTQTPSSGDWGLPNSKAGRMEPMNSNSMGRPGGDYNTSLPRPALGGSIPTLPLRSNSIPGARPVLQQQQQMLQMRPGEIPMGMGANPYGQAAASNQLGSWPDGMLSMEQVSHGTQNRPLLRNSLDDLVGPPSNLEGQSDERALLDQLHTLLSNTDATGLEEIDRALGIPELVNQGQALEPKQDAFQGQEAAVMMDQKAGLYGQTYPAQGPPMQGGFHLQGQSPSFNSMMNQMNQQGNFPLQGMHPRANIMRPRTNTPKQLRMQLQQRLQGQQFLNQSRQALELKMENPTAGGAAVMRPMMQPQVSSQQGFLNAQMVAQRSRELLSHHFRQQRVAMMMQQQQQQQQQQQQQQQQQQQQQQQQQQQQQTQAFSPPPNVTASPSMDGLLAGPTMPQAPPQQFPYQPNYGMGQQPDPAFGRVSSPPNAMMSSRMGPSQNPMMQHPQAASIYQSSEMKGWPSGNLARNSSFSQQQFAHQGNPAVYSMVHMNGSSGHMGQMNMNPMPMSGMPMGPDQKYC
Chain of Peroxisome proliferator-activated receptor gamma/Nuclear receptor coactivator 2 (P37231 whole entry): as the sequence (P37231 whole entry) above
Chain of Peroxisome proliferator-activated receptor gamma/Nuclear receptor coactivator 2 (Q15596 whole entry, further chain): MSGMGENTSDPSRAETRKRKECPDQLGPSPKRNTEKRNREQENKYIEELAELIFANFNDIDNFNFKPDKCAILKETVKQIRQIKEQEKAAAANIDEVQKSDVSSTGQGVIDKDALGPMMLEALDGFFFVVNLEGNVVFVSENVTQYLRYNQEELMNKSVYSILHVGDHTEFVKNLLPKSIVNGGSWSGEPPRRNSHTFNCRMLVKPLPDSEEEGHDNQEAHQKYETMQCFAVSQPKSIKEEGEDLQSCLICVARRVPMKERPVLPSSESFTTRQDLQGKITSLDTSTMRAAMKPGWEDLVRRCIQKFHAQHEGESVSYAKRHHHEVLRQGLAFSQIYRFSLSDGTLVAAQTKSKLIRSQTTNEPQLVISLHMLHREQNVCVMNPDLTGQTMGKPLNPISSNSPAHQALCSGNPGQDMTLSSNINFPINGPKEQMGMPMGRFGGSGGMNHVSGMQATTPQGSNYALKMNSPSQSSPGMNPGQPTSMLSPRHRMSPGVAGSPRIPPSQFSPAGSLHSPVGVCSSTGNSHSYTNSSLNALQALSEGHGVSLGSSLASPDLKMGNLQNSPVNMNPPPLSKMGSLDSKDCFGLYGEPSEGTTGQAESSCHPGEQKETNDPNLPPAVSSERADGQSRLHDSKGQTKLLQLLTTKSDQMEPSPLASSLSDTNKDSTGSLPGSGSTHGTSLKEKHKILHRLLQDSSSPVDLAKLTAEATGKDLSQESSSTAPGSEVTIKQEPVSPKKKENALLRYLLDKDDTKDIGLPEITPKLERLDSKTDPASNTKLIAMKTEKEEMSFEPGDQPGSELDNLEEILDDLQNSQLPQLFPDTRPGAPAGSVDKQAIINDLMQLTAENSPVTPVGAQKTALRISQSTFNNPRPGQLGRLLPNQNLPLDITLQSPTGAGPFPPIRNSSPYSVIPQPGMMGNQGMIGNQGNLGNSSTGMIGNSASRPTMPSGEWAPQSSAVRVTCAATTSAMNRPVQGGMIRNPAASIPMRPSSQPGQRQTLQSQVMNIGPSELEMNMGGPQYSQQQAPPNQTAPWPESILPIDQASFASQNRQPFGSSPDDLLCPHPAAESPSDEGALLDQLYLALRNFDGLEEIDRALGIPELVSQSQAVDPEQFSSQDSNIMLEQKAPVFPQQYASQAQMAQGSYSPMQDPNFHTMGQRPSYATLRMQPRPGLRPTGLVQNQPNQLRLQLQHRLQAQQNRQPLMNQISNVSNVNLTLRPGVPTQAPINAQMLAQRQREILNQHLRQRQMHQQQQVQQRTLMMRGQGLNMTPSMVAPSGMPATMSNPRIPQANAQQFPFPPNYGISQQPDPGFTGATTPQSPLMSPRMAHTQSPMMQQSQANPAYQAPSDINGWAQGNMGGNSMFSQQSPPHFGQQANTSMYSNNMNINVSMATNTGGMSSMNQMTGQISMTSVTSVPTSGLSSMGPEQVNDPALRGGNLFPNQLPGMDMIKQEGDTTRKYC

O=c1c(O)c(-c2ccc(O)cc2)oc2cc(O)ccc12 [RESOKAEMPFEROL]
AC50 (Cytochrome P450 3A4): 39.8 µM (inconclusive)
AC50 (Cytochrome P450 2D6): 20 µM (inconclusive)

O=C(CCCn1c(=S)[nH]c2ccccc2c1=O)N1CCN(c2cccc3ccccc23)CC1
IC50 (Estrogen receptor): 0.07 µM (not active)

Cc1ccc2nc(NC(=O)C3=NN(c4ccccc4)C(=O)CC3)sc2c1
IC50 [1]: 29 µM (active)

O=C(CCCCCn1c(=S)[nH]c2ccccc2c1=O)N1CCC(O)(c2ccc(Cl)cc2)CC1
IC50 (Estrogen receptor): 0.08 µM (not active)

CCOC(=O)CC(=O)CSc1nc(-c2ccccc2)cc(-c2ccc(Cl)cc2)c1C#N
EC50 [2]: 14.8 µM (not active)
AC50 (Cytochrome P450 1A2): 2.24 µM (inconclusive)
EC50 [3]: 18.7 µM (not active)
EC50 [4]: 16.4 µM (not active)
AC50 (Cytochrome P450 2C19): 7.08 µM (inconclusive)

Oc1cccc(/C=N/NC(=S)Nc2cccnc2)c1O
IC50 (Nonstructural protein 1): 1.83 µM (active)
AC50 [5]: 12.4 µM (active)
EC50 (cells [6]): 83 µM (active)
IC50 [7]: 16.1 µM (active)
IC50 (Large T antigen): 15 µM (active)
EC50 [8]: > 100 µM (active)
EC50 (cells [9]): 13.6 µM (active)
AC50 (INS1): 0.976 µM (active)

CCCCCCC1=Cc2cc(OC)c(OC)cc2C(C(C(C)=O)C(=O)OCC)O1 (stereo not given)
AC50 (Cytochrome P450 3A4): 3.16 µM (inconclusive)
AC50 (Cytochrome P450 2D6): 6.31 µM (inconclusive)

CCCNC(=O)C(CC)NS(=O)(=O)c1ccc(OC)cc1 (stereo not given)
EC50 [2]: > 79.4 µM (not active)
EC50 [3]: > 79.4 µM (not active)
EC50 [4]: > 79.4 µM (not active)

O=C(Cn1ncc(Cl)c(Cl)c1=O)c1ccc(Cl)cc1
AC50 [10]: 3.39 µM (active)
AC50 [11]: 8.81 µM (active)
IC50 [12]: 2.15 µM (active)
EC50 [13]: 2.11 µM (active)
IC50 [14]: 1.84 µM (active)
EC50 [15]: 2.41 µM (active)
IC50 [16]: 7.28 µM (active)
